The IC50 is the concentration that gives 50% inhibition.

Data set [1] deals with MCF-10A. In words: Cytotoxicity against human MCF-10A cells at 100 uM after 72 hrs by MTT assay. The data set is classed as cell-based. For orientation: Formazan colour is commonly taken as a measure of viable cells.
Data set [2] relates to MCF-10A. In words: Cytotoxicity against human MCF-10A cells at <= 25 uM after 72 hrs by MTT assay. The data set is classed as cell-based.
For the next data set, the system named is A549. In words: Cytotoxicity against human A549 cells assessed as inhibition of cell proliferation after 72 hrs by MTT assay. The data set is classed as functional, cell-based. As to conditions: A549, 72 h.
The next data set concerns HepG2. Description: Cytotoxicity against human HepG2 cells assessed as inhibition of cell proliferation after 72 hrs by MTT assay. Type of data set: functional, cell-based. As to conditions: HepG2, 72 h.
For another data set, the system named is MCF7. In words: Cytotoxicity against human MCF7 cells assessed as inhibition of cell proliferation after 72 hrs by MTT assay. The data set is classed as functional, cell-based. As to conditions: MCF7, 72 h.
Data set [3] concerns MCF-10A. Description: Cytotoxicity against human MCF-10A cells at 50 uM after 72 hrs by MTT assay. Type of data set: cell-based.
Data set [4] deals with T1, DNA topoisomerase 2-alpha (Homo sapiens, UniProt P11388). Description: Inhibition of human topoisomerase-2 alpha in human A498 cells assessed as decrease in relaxation of supercoiled DNA at 10 uM. Type of data set: cell-based.
Data set [5] has as its system MCF-10A. In words: Cytotoxicity against human MCF-10A cells assessed as reduction in cell viability after 72 hrs by MTT assay. Type of data set: cell-based.
Data set [6] concerns the target T1, DNA topoisomerase 2-alpha. In words: Inhibition of human topoisomerase-2alpha assessed as reduction in pBR322 DNA relaxation by gel electrophoresis method.

The source made the active and inactive calls. The calls are words filed in the database; no cut-off is given here.

T1 sequence (P11388 whole entry): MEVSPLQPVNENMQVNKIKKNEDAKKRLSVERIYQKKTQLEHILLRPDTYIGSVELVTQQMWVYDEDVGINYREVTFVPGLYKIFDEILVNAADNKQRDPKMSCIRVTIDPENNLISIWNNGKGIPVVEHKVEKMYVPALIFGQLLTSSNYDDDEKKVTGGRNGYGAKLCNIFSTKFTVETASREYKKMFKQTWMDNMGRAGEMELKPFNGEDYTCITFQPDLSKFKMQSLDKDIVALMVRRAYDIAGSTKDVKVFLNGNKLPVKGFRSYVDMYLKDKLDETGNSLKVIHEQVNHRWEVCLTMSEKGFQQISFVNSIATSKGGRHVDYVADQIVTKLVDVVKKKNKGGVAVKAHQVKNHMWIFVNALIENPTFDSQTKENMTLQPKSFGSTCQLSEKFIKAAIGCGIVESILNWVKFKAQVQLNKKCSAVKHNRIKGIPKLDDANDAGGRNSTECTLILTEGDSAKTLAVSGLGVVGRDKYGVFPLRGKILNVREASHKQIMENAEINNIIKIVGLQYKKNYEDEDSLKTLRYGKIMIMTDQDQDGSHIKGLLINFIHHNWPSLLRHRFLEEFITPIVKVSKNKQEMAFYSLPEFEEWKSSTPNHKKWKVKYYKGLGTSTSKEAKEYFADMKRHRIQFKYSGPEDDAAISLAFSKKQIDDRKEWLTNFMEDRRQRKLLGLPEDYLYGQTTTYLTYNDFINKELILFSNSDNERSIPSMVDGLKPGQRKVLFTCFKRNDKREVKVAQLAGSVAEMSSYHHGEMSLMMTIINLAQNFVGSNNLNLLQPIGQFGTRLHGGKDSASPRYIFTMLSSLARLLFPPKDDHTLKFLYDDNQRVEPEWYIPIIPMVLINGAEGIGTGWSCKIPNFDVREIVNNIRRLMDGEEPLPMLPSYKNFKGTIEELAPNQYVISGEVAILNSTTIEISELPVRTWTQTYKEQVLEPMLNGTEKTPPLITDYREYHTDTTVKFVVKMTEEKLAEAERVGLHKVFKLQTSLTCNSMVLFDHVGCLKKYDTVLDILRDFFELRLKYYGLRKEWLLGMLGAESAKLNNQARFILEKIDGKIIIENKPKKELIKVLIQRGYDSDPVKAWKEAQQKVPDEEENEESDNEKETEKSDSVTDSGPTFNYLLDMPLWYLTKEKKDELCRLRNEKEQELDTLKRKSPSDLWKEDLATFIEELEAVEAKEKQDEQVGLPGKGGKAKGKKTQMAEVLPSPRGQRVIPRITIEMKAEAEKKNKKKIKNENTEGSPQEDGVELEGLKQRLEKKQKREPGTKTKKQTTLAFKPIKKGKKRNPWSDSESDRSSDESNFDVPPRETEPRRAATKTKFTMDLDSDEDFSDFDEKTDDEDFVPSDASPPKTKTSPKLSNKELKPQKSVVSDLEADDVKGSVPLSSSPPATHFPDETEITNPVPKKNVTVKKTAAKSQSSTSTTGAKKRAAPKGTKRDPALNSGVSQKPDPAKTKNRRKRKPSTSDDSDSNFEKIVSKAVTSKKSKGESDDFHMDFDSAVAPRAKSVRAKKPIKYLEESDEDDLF

In the case of `Cc1cc2occ(C3C(C#N)=C(N)Oc4c3c(=O)oc3ccccc43)c(=O)c2cc1Cl` (configuration not stated), the Activity entry with MCF-10A [1] was “Toxic”; in the data set on MCF-10A [2], “Non-Toxic”. For the same compound, the IC50 was 6.25 µM in the data set with A549, 12.5 µM with HepG2 and 6.25 µM in the data set on MCF7.

Consider `Cc1cc2occ(-c3nc(-c4ccccc4)c(-c4ccccc4)n3-c3ccc(Br)cc3)c(=O)c2cc1Cl`, for which the Activity entry is reported as “Non-Toxic” in the data set on MCF-10A [2] and “Toxic” in the data set with MCF-10A [3]. The IC50 was 25 µM in the data set on A549; 6.25 µM in the data set on HepG2; 17.1 µM in data set [4]; more than 100 µM with MCF-10A [5]; 1.56 µM with MCF7.

For the compound `Cc1cc2occ(-c3nc(-c4ccccc4)c(-c4ccccc4)n3-c3ccc(Cl)cc3)c(=O)c2cc1Cl`, the figures for the Activity entry with MCF-10A [2] and in the data set on MCF-10A [3] were “Non-Toxic” and “Toxic”, respectively. Further, the IC50 stood at 12.5 µM in the data set on A549, 1.56 µM in the data set on HepG2, 92 µM with MCF-10A [5] and 12.5 µM with MCF7.

As for `COc1ccc(C2C(C#N)=C(N)Oc3c2c(=O)oc2ccccc32)c(OC)c1` (configuration not stated), the Activity result is listed as “Toxic” with MCF-10A [1] and “Non-Toxic” in the data set on MCF-10A [2]. In addition, the IC50 came to 6.25 µM with A549, 3.12 µM with HepG2 and 25 µM with MCF7.

On to `Cc1ccc(-n2c(-c3coc4cc(C)c(Cl)cc4c3=O)nc(-c3ccccc3)c2-c2ccccc2)c(C)c1`, for which the Activity result in the data set on MCF-10A [1] is on record as “Toxic”; in the data set on MCF-10A [2], “Non-Toxic”. The IC50 in the data set with A549 was 6.25 µM; in the data set on HepG2 it was 3.12 µM; in the data set on MCF7, 6.25 µM.

Take `N#CC1=C(N)Oc2c(c(=O)oc3ccccc23)C1C1CC1` (configuration not stated): the values for the Activity entry with MCF-10A [1] and in the data set on MCF-10A [2] were “Toxic” and “Non-Toxic”, respectively. Further, the IC50 with A549 is 25 µM; in the data set on HepG2, 12.5 µM; in the data set with MCF7, 25 µM.

Turning to `N#CC1=C(N)Oc2c(c(=O)oc3ccccc23)C1c1c[nH]c2ccccc12` (configuration not stated), the inhibition entry in data set [6] is “Active”. The Activity result is “Non-Toxic” in the data set on MCF-10A [2] and “Toxic” with MCF-10A [3]. For the same compound, the IC50 in the data set on A549 is 1.56 µM; with HepG2, 12.5 µM; in data set [4] it was 12.4 µM; in the data set with MCF-10A [5], 94 µM; in the data set on MCF7 it was 1.56 µM.

As to `COc1cccc(-n2c(-c3coc4cc(C)c(Cl)cc4c3=O)nc(-c3ccccc3)c2-c2ccccc2)c1`, the Activity result in the data set with MCF-10A [1] is on record as “Toxic”; in the data set with MCF-10A [2] it was “Non-Toxic”. Moreover, the IC50 is 6.25 µM in the data set with A549, 6.25 µM in the data set on HepG2 and 25 µM with MCF7.

Turning to `N#CC1=C(N)Oc2c(c(=O)oc3ccccc23)C1c1cc2ccccc2c2ccccc12` (configuration not stated), the Activity result with MCF-10A [1] is “Toxic”; with MCF-10A [2], “Non-Toxic”. The half-inhibitory concentration (IC50) with A549, with HepG2 and with MCF7 was 25 µM each time.

For the compound `Cc1cccc(-n2c(-c3coc4cc(C)c(Cl)cc4c3=O)nc(-c3ccccc3)c2-c2ccccc2)c1`, the Activity entry in the data set on MCF-10A [1] was “Toxic”; in the data set on MCF-10A [2] it was “Non-Toxic”. Besides, the IC50 in the data set on A549 stood at 12.5 µM; with HepG2, 6.25 µM; in the data set with MCF7, 12.5 µM.

Consider `Cc1cc2occ(-c3nc(-c4ccccc4)c(-c4ccccc4)n3-c3ccc([N+](=O)[O-])cc3)c(=O)c2cc1Cl`, for which the Activity result in the data set on MCF-10A [1] is on record as “Toxic”; with MCF-10A [2], “Non-Toxic”. For the same compound, the half-inhibitory concentration (IC50) with A549 is 3.12 µM; with HepG2, 25 µM; in data set [4], 48.4 µM; with MCF-10A [5], more than 100 µM; in the data set with MCF7, 6.25 µM.

Turning to `Cc1cc2occ(-c3nc(-c4ccccc4)c(-c4ccccc4)n3-c3cccc(Cl)c3)c(=O)c2cc1Cl`, the Activity entry in the data set on MCF-10A [1] is recorded as “Toxic”; in the data set with MCF-10A [2], “Non-Toxic”. Moreover, the results for the IC50 in the data set on A549, in the data set on HepG2 and in the data set on MCF7 were 25 µM, 25 µM and 6.25 µM, respectively.

In the case of `Cc1cc2occ(-c3nc(-c4ccccc4)c(-c4ccccc4)n3-c3ccccc3Cl)c(=O)c2cc1Cl`, the Activity result is listed as “Toxic” with MCF-10A [1] and “Non-Toxic” in the data set with MCF-10A [2]. For the same compound, the IC50 with A549 was found to be 12.5 µM; with HepG2 it was 6.25 µM; in the data set on MCF7, 3.12 µM.

With `Cc1ccc(-n2c(-c3coc4cc(C)c(Cl)cc4c3=O)nc(-c3ccccc3)c2-c2ccccc2)cc1`, the Activity result with MCF-10A [1] is reported as “Toxic”; in the data set with MCF-10A [2], “Non-Toxic”. Besides, the half-inhibitory concentration (IC50) was determined as 12.5 µM in the data set on A549, 6.25 µM in the data set on HepG2 and 12.5 µM in the data set with MCF7.

On to `N#CC1=C(N)Oc2c(c(=O)oc3ccccc23)C1c1cc2ccccc2s1` (configuration not stated), for which, in data set [6], the inhibition entry is “Active”. Moreover, the figures for the Activity entry in the data set with MCF-10A [2] and with MCF-10A [3] were “Non-Toxic” and “Toxic”, respectively. Moreover, the half-maximal inhibitory concentration (IC50) in the data set with A549 was found to be 1.56 µM; with HepG2, 6.25 µM; in data set [4], 10.3 µM; in the data set with MCF-10A [5], 98 µM; with MCF7, 1.56 µM.

For the compound `Cc1cc2occ(-c3nc(-c4ccccc4)c(-c4ccccc4)n3-c3ccc(Cl)c(Cl)c3)c(=O)c2cc1Cl`, the Activity result in the data set on MCF-10A [2] is “Non-Toxic”; with MCF-10A [3], “Toxic”. Besides, the IC50 is 6.25 µM in the data set with A549; 12.5 µM in the data set on HepG2; 39.9 µM in data set [4]; 98 µM in the data set with MCF-10A [5]; 1.56 µM in the data set on MCF7.

As to `N#CC1=C(N)Oc2c(c(=O)oc3ccccc23)C1c1cc(=O)c2ccccc2o1` (configuration not stated), the Activity entry is on record as “Non-Toxic” in the data set with MCF-10A [2] and “Toxic” with MCF-10A [3]. For the same compound, the IC50 stood at 1.56 µM in the data set on A549; 6.25 µM with HepG2; 26.4 µM in data set [4]; 90 µM with MCF-10A [5]; 12.5 µM in the data set with MCF7.

As to `N#CC1=C(N)Oc2c(c(=O)oc3ccccc23)C1c1cnc2ccccc2c1` (configuration not stated), the Activity result is recorded as “Non-Toxic” in the data set on MCF-10A [2] and “Toxic” in the data set with MCF-10A [3]. Also, the IC50 in the data set with A549 worked out at 6.25 µM; with HepG2, 6.25 µM; in data set [4], 16.7 µM; with MCF-10A [5], 94 µM; in the data set on MCF7 it was 1.56 µM.

`Cc1cc2occ(-c3nc(-c4ccccc4)c(-c4ccccc4)n3-c3cccc([N+](=O)[O-])c3)c(=O)c2cc1Cl`: the Activity result is reported as “Non-Toxic” in the data set with MCF-10A [2] and “Toxic” in the data set with MCF-10A [3]. Moreover, the IC50 with A549 turned out to be 6.25 µM; in the data set with HepG2, 25 µM; in the data set with MCF7, 1.56 µM.

Turning to `COc1ccccc1-n1c(-c2coc3cc(C)c(Cl)cc3c2=O)nc(-c2ccccc2)c1-c1ccccc1`, the Activity entry is on record as “Toxic” in the data set with MCF-10A [1] and “Non-Toxic” in the data set with MCF-10A [2]. Also, the figures for the IC50 in the data set on A549, in the data set on HepG2 and with MCF7 were 12.5 µM, 12.5 µM and 25 µM, respectively.

On to `N#CC1=C(N)Oc2c(c(=O)oc3ccccc23)C1c1c2ccccc2cc2ccccc12` (configuration not stated), for which the Activity result is reported as “Toxic” in the data set on MCF-10A [1] and “Non-Toxic” in the data set on MCF-10A [2]. Besides, the 50% inhibitory concentration (IC50) is 25 µM with A549, 25 µM in the data set on HepG2 and 12.5 µM with MCF7.
